Results taken from patent US20160272691A1, “COMPOSITIONS AND METHODS FOR TREATING CONDITIONS ASSOCIATED WITH y-[sequence]” (NDSU RESEARCH FOUNDATION, priority 2013, published 2016).
No end group written: not given here.

Key:
γHV68 M11 = target: T1, γHV68 M11 (Murid herpesvirus 4, UniProt P89884); assay: biochemical; assay type: binding, murine γHV68; details: for ΔG, M11 / ΔH, M11 / ΔS, M11: ITC, 25° C., Table 1
T1 construct: γHV68 M11 residues 1-136 was expressed and purified; made in house
Text: (§1) Various Bcl-2 homologs lacking the C-terminal transmembrane helix were cloned and expressed to enable purification of soluble constructs identical to those used for previous structural studies. γHV68 M11 residues 1-136 was expressed and purified. The double mutant variant of Bcl-XL (N52D, N66D) was created by two rounds of site-directed mutagenesis using the QuikChange II Site-Directed Mutagenesis Kit (Agilent Technologies), then cloned, along with a C-terminal His6-tag for purification, into the NdeI and NotI restriction sites of pET 29b. The His6-tagged Bcl-XL (residues 1-208, N52D, N66D) were expressed in E. coli strain BL21(DE3)pLysS, and soluble protein in the cell lysate was purified to homogeneity by Immobilized Metal Affinity Chromatography using two 5 mL His-Select columns (GE Healthcare) linked in tandem, followed by Ion-Exchange Chromatography using a Mono Q HR 10/10 column (GE Healthcare) and Size-Exclusion Chromatography using a 16/60 preparative Superdex 75 column (GE Healthcare).
(§2) Various Beclin 1 BH3D-derived peptides, were chemically synthesized, and HPLC purified to >95% purity, with peptide purity confirmed by electrospray mass spectrometry (EZBioLabs/RSSynthesis/Protein Chemistry Technology Core at the University of Texas Southwestern Medical Center, Dallas).
(§3) Isothermal titration calorimetry was performed using a Nano ITC Low Volume (TA Instruments). For all ITC experiments, samples were loaded into separate dialysis cassettes, and dialyzed into ITC buffer. The ITC buffer for all experiments involving γHV68 M11 was 50 mM HEPES, pH 7.5, 250 mM NaCl and 2 mM β-mercaptoethanol and for human Bcl-XL was 25 mM HEPES, pH 7.5, 100 mM NaCl and 2 mM β-mercaptoethanol. ITC was performed at 25° C. with 25 injections of 2 μL each. Data were analyzed using NanoAnalyze Software (TA Instruments), with an independent model.

human Bcl-XL = target: T2, human Bcl-XL (Homo sapiens, UniProt Q07817, N52D/N66D); assay: Isothermal titration calorimetry, binding of Beclin 1 BH3D-derived peptides to Bcl-XL; details: ITC
T2 construct: The His6-tagged Bcl-XL (residues 1-208, N52D, N66D) were expressed in E. coli; His6 (C); made in house; host or cells: E. coli BL21(DE3)pLysS
Text: as §1, §2, §3

M11 = target: T3, M11 (Murid herpesvirus 4, UniProt P89884); assay: Autophagy assay (GFP-LC3 puncta), M11-mediated down-regulation of autophagy in MCF7 cells; assay type: cell-based, murine γHV68; details: cells that transiently express M11 in addition to Beclin 1; p=0.0010 treated versus untreated
T3 construct: expressed in transfected cells; host or cells: MCF7 human breast carcinoma cells
T3 sequence (P89884 whole entry, looked up): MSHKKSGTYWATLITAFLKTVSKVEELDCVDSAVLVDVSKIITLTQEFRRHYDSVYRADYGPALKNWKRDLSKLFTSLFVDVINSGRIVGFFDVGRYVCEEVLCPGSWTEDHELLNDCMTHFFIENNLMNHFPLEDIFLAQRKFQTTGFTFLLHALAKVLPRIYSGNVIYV
Protocol: (§4) Quantification of the fluorescent autophagosomes in MCF7 cells co-transfected with GFP-LC3 (1.6 μg), Beclin 1 (1.2 μg), and either Bcl-XL (1.2 μg) or M11(1.2 μg) expression plasmids (4 μg plasmids total) was done using an inverted AxioObserver (Zeiss). Cells were cultured in DMEM with 10% fetal calf serum (growth medium) in 8-well slides (Millipore) and transfected at 80% confluence with Lipofectamine (Invitrogen). After transfection, cells were either starved overnight in Earle's balanced salt solution (EBSS, starvation medium), or grown in nutrient-rich media with the addition of 2×EAA (essential amino acids) and 2×NEAA (nonessential amino acids) (nutrient rich medium) in the absence or presence of 1 mM peptides if indicated. The number of GFP-LC3 puncta per GFP-LC3 positive cell was assessed by counting a minimum of 50 cells via Image ProPlus for duplicate samples per condition in three independent experiments. The significance of alterations in autophagy levels were determined by a two-tailed, heteroscedastic student's t-test, wherein p≦0.05 is considered significant.
(§5) Lastly, whether the DM peptide would specifically prevent M11-mediated down-regulation, but not Bcl-XL-mediated down-regulation of Beclin 1-dependent autophagy in cells was investigated. […]

Bcl-XL = target: T4, Bcl-XL (Homo sapiens, UniProt Q07817); assay: Autophagy assay (GFP-LC3 puncta), Bcl-XL-mediated down-regulation of autophagy in MCF7 cells; assay type: cell-based; details: cells that transiently express Bcl-XL in addition to Beclin 1; p=0.92294 treated versus untreated
T4 construct: expressed in transfected cells; host or cells: MCF7 human breast carcinoma cells
Protocol: as §4, §5

MCF7 cells = assay: Autophagy assay (GFP-LC3 puncta) in MCF7 cells without Bcl-XL or M11; assay type: cell-based, human
Protocol: as §4, §5

T2 sequence (Q07817 1-208 N52D/N66D): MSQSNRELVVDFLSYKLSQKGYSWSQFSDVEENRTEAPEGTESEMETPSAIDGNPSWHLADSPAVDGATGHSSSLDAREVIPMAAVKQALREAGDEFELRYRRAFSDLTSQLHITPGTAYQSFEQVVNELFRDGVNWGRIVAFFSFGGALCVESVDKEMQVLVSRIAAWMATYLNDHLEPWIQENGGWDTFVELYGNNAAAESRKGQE
T4 sequence (Q07817 whole entry): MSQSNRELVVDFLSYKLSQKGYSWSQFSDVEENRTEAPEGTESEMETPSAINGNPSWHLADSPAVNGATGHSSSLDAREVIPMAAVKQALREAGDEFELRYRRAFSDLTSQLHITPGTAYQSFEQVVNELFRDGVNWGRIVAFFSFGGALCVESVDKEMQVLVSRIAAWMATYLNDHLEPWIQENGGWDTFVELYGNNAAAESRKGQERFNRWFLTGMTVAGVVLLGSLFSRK

GSGTMENLSRRLKVTEALFDIMSGQT [G120E + D121A]
Kd (γHV68 M11): 6.43 ± 0.15 µM
ΔG, M11 (γHV68 M11): -7.079 ± 0.014 kcal/mol
ΔH, M11 (γHV68 M11): -14.9 ± 0.65 kcal/mol
ΔS, M11 (γHV68 M11): −109.81 ± 9.28 J/K · mol
fold better binding to M11 compared to the G120E peptide (γHV68 M11; relative to G120E peptide): ~5.7 fold
fold weaker binding to M11 compared to WT (γHV68 M11; relative to WT BH3D): ~4.7 fold
binding to Bcl-XL (in words) (human Bcl-XL): does not bind

GSGTMENLSRRLKVTGDLFDIMSGQT [WT, reference compound]
Kd (γHV68 M11): 1.38 ± 0.41 µM
ΔG, M11 (γHV68 M11): -8.009 ± 0.17 kcal/mol
ΔH, M11 (γHV68 M11): -16.96 ± 1.53 kcal/mol
ΔS, M11 (γHV68 M11): −125.72 ± 22.53 J/K · mol
TΔSapp for binding to M11, fold lower than for binding to Bcl-XL (γHV68 M11; M11 versus Bcl-XL): ~4 fold
ΔHapp for binding to M11, fold higher than for binding to Bcl-XL (γHV68 M11; M11 versus Bcl-XL): ~2 fold
ΔG, Bcl-XL (human Bcl-XL; 25° C., Table 1): -7.787 ± 0.055 kcal/mol
ΔH, Bcl-XL (human Bcl-XL; 25° C., Table 1): -10.41 ± 0.344 kcal/mol
ΔS, Bcl-XL (human Bcl-XL; 25° C., Table 1): −36.89 ± 4.53 J/K · mol
Kd (human Bcl-XL; 25° C., Table 1, cell "No" wraps to "Binding" in the next grid row (= No Binding)): 1.95 ± 0.19 µM

TAT-DM peptide: HIV-1 TAT protein transduction domain attached via a diglycine linker to the N-terminus of the DM peptide (YGRKKRRQRRRGGGSGTMENLSRRLKVTEALFDIMSGQT)
autophagy levels compared to untreated cells (M11): markedly increases autophagy levels
effect on autophagy compared to untreated cells (Bcl-XL): insignificant effect
levels of autophagy (MCF7 cells; MCF7 cells, nutrient-rich or starvation conditions, peptide treatment): did not increase levels of autophagy
autophagy levels relative to untreated cells (MCF7 cells; cells that express Beclin 1, but not Bcl-XL or M11, p=0.03383 treated versus untreated): only a slight elevation in autophagy levels
